Laboratory results reported in ChEMBL document CHEMBL4808250, “Synthesis and biological evaluation of substituted amide derivatives of C4-ageratochromene dimer analog” (Bioorg Med Chem Lett, 2021).
Calls of active or inactive are those of the source. The rule behind the calls is not given here.

Experiments:
MDA-MB-231 = assay: Antiproliferative activity against ER-negative human MDA-MB-231 cells assessed as reduction in cell growth at 50 ug/ml measured by MTT assay; assay type: functional; conditions: read-out: GI
MCF7 = assay: Antiproliferative activity against ER-positive human MCF7 cells assessed as reduction in cell growth at 50 ug/ml measured by MTT assay; assay type: functional; conditions: read-out: GI
PA-1 = assay: Antiproliferative activity against human PA-1 cells assessed as reduction in cell growth at 50 ug/ml measured by MTT assay; assay type: functional; conditions: read-out: GI
Calvarial osteoblast [1] = assay: Induction of osteoblast differentiation in mouse calvarial osteoblasts assessed as increase in ALP activity at 1 pM incubated for 48 hrs by spectrophotometric analysis; assay type: functional, cell-based
Calvarial osteoblast [2] = assay: Induction of osteoblast differentiation in mouse calvarial osteoblasts assessed as increase in ALP activity at 100 pM incubated for 48 hrs by spectrophotometric analysis; assay type: functional, cell-based
Calvarial osteoblast [3] = assay: Induction of osteogenic differentiation in mouse calvarial osteoblasts assessed as increase in Type-1 collagen mRNA expression level at 1 to 100 pM after 24 to 48 hrs by RT-qPCR analysis; assay type: functional, cell-based; conditions: dose 1-100 pM, time 24-48 hrs
Calvarial osteoblast [4] = assay: Cytotoxicity against mouse calvarial osteoblasts assessed as reduction in cell viability at 0.000001 to 1 uM measured after 48 hrs by MTT assay; assay type: cell-based; conditions: dose lower 1e-06 µM, dose upper 1 µM
Calvarial osteoblast [5] = assay: Induction of osteogenic differentiation in mouse calvarial osteoblasts assessed as increase in RUNX2 mRNA expression level at 1 to 100 pM after 24 to 48 hrs by RT-qPCR analysis; assay type: functional, cell-based; conditions: dose 1-100 pM, time 24-48 hrs
Calvarial osteoblast [6] = assay: Induction of osteoblast differentiation in mouse calvarial osteoblasts assessed as increase in bone mineralization at 1 pM incubated for 21 days by alizarin-red S dye based colorimetric analysis; assay type: functional, cell-based; conditions: time 21.0 day
Calvarial osteoblast [7] = assay: Induction of osteogenic differentiation in mouse calvarial osteoblasts assessed as increase in BMP2 mRNA expression level at 1 to 100 pM after 24 to 48 hrs by RT-qPCR analysis; assay type: functional, cell-based; conditions: dose 1-100 pM, time 24-48 hrs

Compound	inhibition of growth at 50 µg/mL (MDA-MB-231) [%]	inhibition of growth at 50 µg/mL (MCF7) [%]	inhibition of growth at 50 µg/mL (PA-1) [%]	also measured
COc1ccc2c(c1)OC(C)(C)C/C2=C1/CC(C)(C)Oc2cc(OCCCCCC(=O)NCc3ccccn3)ccc21	36.5	–	–	–
COc1ccc2c(c1)OC(C)(C)C/C2=C1/CC(C)(C)Oc2cc(OCCCCC(=O)NCc3ccccn3)ccc21	36.5	25.2	26.6	–
COc1ccc2c(c1)OC(C)(C)C/C2=C1/CC(C)(C)Oc2cc(OCCCCCC(=O)N3CCCC3)ccc21	–	25.2	–	–
COc1ccc2c(c1)OC(C)(C)C/C2=C1/CC(C)(C)Oc2cc(OCCCCC(=O)N3CCCCC3)ccc21	36.5	25.2	26.6	–
COc1ccc2c(c1)OC(C)(C)C/C2=C1/CC(C)(C)Oc2cc(OCCCCC(=O)N3CCCC3)ccc21	36.5	25.2	26.6	–
COc1ccc2c(c1)OC(C)(C)C/C2=C1/CC(C)(C)Oc2cc(OCCCC(=O)NCCCCCCNC(=O)OC(C)(C)C)ccc21	36.5	–	26.6	Activity (Calvarial osteoblast [1]): Active
CNCCCCNC(=O)CCCOc1ccc2c(c1)OC(C)(C)C/C2=C1/CC(C)(C)Oc2cc(OC)ccc21	36.5	–	–	–
COc1ccc2c(c1)OC(C)(C)C/C2=C1/CC(C)(C)Oc2cc(OCCCC(=O)N3CCCC3)ccc21	36.5	25.2	26.6	Activity (Calvarial osteoblast [1]): Active
COc1ccc2c(c1)OC(C)(C)C/C2=C1/CC(C)(C)Oc2cc(OCCCCCC(=O)NCCCCCCNC(=O)OC(C)(C)C)ccc21	36.5	25.2	26.6	Activity (Calvarial osteoblast [2]): Active
COc1ccc2c(c1)OC(C)(C)C/C2=C1/CC(C)(C)Oc2cc(OC)ccc21	36.5	25.2	26.6	–
CNCCCCNC(=O)CCCCCOc1ccc2c(c1)OC(C)(C)C/C2=C1/CC(C)(C)Oc2cc(OC)ccc21	36.5	25.2	26.6	–
CNCCCCNC(=O)CCCCOc1ccc2c(c1)OC(C)(C)C/C2=C1/CC(C)(C)Oc2cc(OC)ccc21	36.5	25.2	–	Activity (Calvarial osteoblast [1]): Active
COc1ccc2c(c1)OC(C)(C)C/C2=C1/CC(C)(C)Oc2cc(OCCCC(=O)N3CCCCC3)ccc21	15.9	26.1	68.3	Activity (Calvarial osteoblast [1]): Active; Activity (Calvarial osteoblast [3]): Active; Activity (Calvarial osteoblast [4]): Non-Toxic; Activity (Calvarial osteoblast [5]): Active; Activity (Calvarial osteoblast [6]): Active; Activity (Calvarial osteoblast [7]): Active
COc1ccc2c(c1)OC(C)(C)C/C2=C1/CC(C)(C)Oc2cc(OCCCC(=O)NCc3ccccn3)ccc21	–	–	26.6	–
COc1ccc2c(c1)OC(C)(C)C/C2=C1/CC(C)(C)Oc2cc(OCCCC(=O)N3CCN(C)CC3)ccc21	–	25.2	–	Activity (Calvarial osteoblast [2]): Active
COc1ccc2c(c1)OC(C)(C)C/C2=C1/CC(C)(C)Oc2cc(OCCCCCC(=O)N3CCCCC3)ccc21	36.5	–	26.6	–
COc1ccc2c(c1)OC(C)(C)C/C2=C1/CC(C)(C)Oc2cc(OCCCCC(=O)N3CCN(C)CC3)ccc21	36.5	25.2	26.6	–
COc1ccc2c(c1)OC(C)(C)C/C2=C1/CC(C)(C)Oc2cc(O)ccc21	36.5	25.2	26.6	–
COc1ccc2c(c1)OC(C)(C)C/C2=C1/CC(C)(C)Oc2cc(OCCCCCC(=O)N3CCN(C)CC3)ccc21	–	25.2	26.6	–
